Test results published in patent US20080191170A1, “Use of Ionic Liquids” (CAMBRIDGE UNIVERSITY TECHNICAL SERVICES LIMITED, priority 2004, published 2008).
Where two headings read alike, the source gives them in different places.

Tests used:
[1] = Water miscibility of silyl-protected ionic liquid; format: physicochemical
Experimental: Dry 3-HOPMIm PF6(2.86 g, 10 mmol) was placed in a round-bottomed flask and dissolved in 50 ml dry THF. Dry trimethylsilyl (TMS) chloride (1.05 g) was added in dry THF solution, dropwise over a period of 30 minutes, with external cooling and stirring, under an atmosphere of dry argon. Stirring was continued for 12 hours.
At the completion of the reaction (TLC), the solvent was removed in vacuo to yield the silyl-protected ionic liquid (3.52 g, 98%), 3-TMSOPMIm PF6.

[2] = target: T1, morphine dehydrogenase (MDH) (Pseudomonas putida, UniProt Q02198); details: ionic liquid as medium, cited from earlier work; for Net % codeinone: <100 ppm water, glucose dehydrogenase recycling NADP+
T1 sequence (Q02198 1-296): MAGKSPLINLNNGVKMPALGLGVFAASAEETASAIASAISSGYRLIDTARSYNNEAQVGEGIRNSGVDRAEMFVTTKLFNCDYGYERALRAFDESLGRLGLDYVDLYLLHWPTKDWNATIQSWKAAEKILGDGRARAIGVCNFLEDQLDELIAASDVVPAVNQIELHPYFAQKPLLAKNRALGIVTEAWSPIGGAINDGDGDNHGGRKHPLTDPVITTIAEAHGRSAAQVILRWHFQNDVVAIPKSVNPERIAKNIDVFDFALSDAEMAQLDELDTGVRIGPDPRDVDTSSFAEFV

[3] = Refractive index of ionic liquid (Mettler Toledo Refracto 30PX, sodium D-line 589.3 nm); format: physicochemical; details: sodium D-line at 589.3 nm
Experimental: (§1) Refractive index was measured using a Mettler Toledo Refracto™ 30PX, using a single wavelength light source (the sodium D-line at 589.3 nm). Viscosity was measured using an AND Vibro™ SV10 instrument, which measures viscosity by controlling the amplitude of vibrations of sensor plates submerged in a liquid, detecting changes in the electric current needed to drive the plates.

[4] = Viscosity of ionic liquid (AND Vibro SV10); format: physicochemical; details: at 25° C.
Experimental: as §1

[5] = Solubility of penicillin G (sodium salt) in ionic liquid solvents; format: physicochemical

SMILES	Net % codeinone ([2]; 1 hour)	Net % codeinone ([2]; 4 hours) [%]	Net % codeinone ([2]; 24 hours)	MDH activity in the ionic liquid (in words) [2]	further results
Cn1cc[n+](CCCO[Si](C)(C)C)c1.F[P-](F)(F)(F)(F)F [3-TMSOPMIm PF6]	–	–	–	–	miscibility with water [1]: effectively immiscible with water
CCCCn1cc[n+](C)c1.F[P-](F)(F)(F)(F)F [BMIm PF6]	0%	0	2%	extremely low	–
CCCCn1cc[n+](C)c1.O=C([O-])CO [BMIm glycolate]	0%	5	12%	greatly improved	–
C[n+]1ccn(CCCO)c1.[Cl-] [HOPMIm Cl, hydroxypropyl methyl imidazolium chloride]	0%	0	Small	very little activity	–
C[n+]1ccn(CCCO)c1.F[P-](F)(F)(F)(F)F [HOPMIm PF6]	2%	9	20%	high level	–
C[n+]1ccn(CCCO)c1.O=C([O-])CO [HOPMIm glycolate]	small	5	16%	moderate level of activity	–
CC(=O)O.CCCCN(CCO)CCO [Pure n-butyl diethanolammonium acetate, n-butyl diethanolammonium acetate]	–	–	–	–	Refractive index [3]: 1.464; Viscosity [4]: ~285 mPa · s
CCCCN(CCO)CCO.O=C(O)C(F)(F)F [n-butyl diethanolammonium trifluoroacetate]	–	–	–	–	Refractive index [3]: 1.434; Viscosity [4]: 440 mPa · s
CC1(C)S[C@@H]2[C@H](NC(=O)Cc3ccccc3)C(=O)N2[C@H]1C(=O)[O-].[Na+] [penicillin G (sodium salt)]	–	–	–	–	solubility ([5]; in dimethyl ethanolammonium crotonate/ethanol (25/75 v/v)): ~50 mg/mL; solubility ([5]; in dimethyl ethanolammonium trifluoroacetate/ethanol (25/75 v/v)): 76 mg/mL; solubility ([5]; in pure dimethyl ethanolammonium crotonate): ~20 mg/mL; solubility ([5]; in pure dimethyl ethanolammonium trifluoroacetate): > 275 mg/mL
